Like-named read-outs stand apart in the source and are kept apart here.
Assays:
[1] = tested on: P. aeruginosa strain PAO1; settings: 20 mM Tris–HCl, pH 7.2, 1 h, 37°C, log-phase bacteria ~10^5–10^6 CFU/ml, limit of detection 10 CFU/ml, triplicate experiments
[2] = tested on: S. aureus strain NRS384 (MRSA); assay: Murine burn wound infection model, prophylactic; type: in vivo, Staphylococcus aureus; settings: monotherapy: 1% (wt/vol) PaP1, or 0.02% or 0.2% (wt/vol) mupirocin, topical in diH2O, 1 h before and 2 h after infection with 10^6 CFU; female CD1 mice, third-degree burns; counts 3 h post-infection; control ~10^6 CFU/g tissue; geometric mean
[3] = peptide 10 μg/ml, serial dilution and plating

Row | Compound | reduction of bacterial viability (log10-fold kill) [1, 3] | reduction of bacterial viability (log10-fold kill) ([1]; peptide 5 μg/ml, plating) | reduction of MRSA viability vs untreated control [2]
1 | NAGDYAGAAEQFLRWNKAGGKVLPGLVRRRA [PaP1-2] | 1.2 log10-fold |  | 
2 | NAGDYAGAAEQFLRWNKAGGKVLPGLVRRRASERELFLGAA [PaP1-1] | ineffective | ineffective | 
3 | NAGDYAGAAEQFLRWNKAGGKVLPGLVRRRK [PaP1-3] | below the limit of detection | 2.4 log10-fold | 
4 | QYCANDRVGNLWVEAQEGRKPLRSSAKFKGGAQRRSGLA [PaP1-6] | retains bactericidal activity |  | 
5 | C/C(=C\C(=O)OCCCCCCCCC(=O)O)C[C@@H]1OC[C@H](C[C@@H]2O[C@H]2[C@@H](C)[C@H](C)O)[C@@H](O)[C@H]1O [mupirocin] |  |  | 1.1–1.2 log10-fold
